Patent US5160727A, “Tumor cell sensitization method using quinazolinedione derivatives” (priority 1990, dated 1992)
Structures can show the parent of a compound that is named as a salt. Where two headings read alike, the source gives them in different places.

Experiments:
Format in all cases: cell-based, murine
P388R cells [1] = assay: Comparative chemosensitization studies in resistant P388R cells; details: for effect of serum proteins on chemosensitizing activity: MDR cells
Procedure: (§1) In performing the studies P388 that were sensitive to adriamycin (P388S) and P388 cells that were resistant to adriamycin (P388/ADR) were exposed to various concentrations of anticancer drug either alone or together with 5 μg/mL of modifier or sensitizer for 72 hours.
(§2) The P388 murine leukemia cells used in obtaining the data set forth in Table I and Table II were obtained from Southern Research Institute (Birmingham, Ala.) and were cultured from ascites fluids of tumor-bearing DMA/2 mice and maintained in Fischer's medium supplemented with 10% horse serum, 10 μM 2-mercaptoethanol, and gentamycin (50 μg/mL). Cells were counted with a Model ZF Coulter Counter (Coulter Electronics, Inc., Hialeah, Fla.). Viability was determined by trypan blue exclusion. The general methodology is described by W. D. Klohs, et al, Cancer Research 46, 4352-4356 (September 1986) and W. D. Klohs, et al, J. Nat'l. Cancer Inst. 75, 353-359 (1985).

MDR P388 cells = assay: Intracellular drug levels in MDR P388 cells; details: mechanism of chemosensitization
P388S cells = assay: 72-hour growth inhibition of drug-sensitive P388S cells by anticancer drug alone or with modifier (Table I); details: for IC50: Mus musculus, P388/S, 72 h, mean of two experiments in triplicate
Procedure: as §1, §2

P388R cells [2] = assay: Potentiation of adriamycin activity and cell growth in P388 resistant cells (Table II); details: for Degree of ADR Potentiation in P388R: footnote a (drawing 3)
Procedure: as §2, with “The general methodology is described by W. D. Klohs, et al, Cancer Research 46, 4352-4356 (September 1986) and W. D. Klohs, et al, J. Nat'l.” left out, “Inst.” for “Inst. 75, 353-359 (1985).”

P388/ADR cells = assay: 72-hour growth inhibition of adriamycin-resistant P388/ADR cells by anticancer drug alone or with modifier (Table I); details: Mus musculus
Procedure: as §1, §2

[3] = anticancer drug alone, modifier none, mean of two experiments in triplicate, read-out: ID50 (concentration that inhibits 72-hour cell growth by 50%)
[4] = anticancer drug with modifier CsA (cyclosporin A) 5 μg/mL, mean of two experiments in triplicate, read-out: ID50 (concentration that inhibits 72-hour cell growth by 50%)
[5] = anticancer drug with modifier TIOP (tioperidone) 5 μg/mL, mean of two experiments in triplicate, read-out: ID50 (concentration that inhibits 72-hour cell growth by 50%)
[6] = anticancer drug with modifier VER (verapamil) 5 μg/mL, mean of two experiments in triplicate, read-out: ID50 (concentration that inhibits 72-hour cell growth by 50%)
[7] = P388S, anticancer drug alone, modifier none, read-out: ID50 (concentration that inhibits 72-hour cell growth by 50%)
[8] = P388S, anticancer drug with modifier CsA (cyclosporin A) 5 μg/mL, read-out: ID50 (concentration that inhibits 72-hour cell growth by 50%)
[9] = P388S, anticancer drug with modifier TIOP (tioperidone) 5 μg/mL, read-out: ID50 (concentration that inhibits 72-hour cell growth by 50%)
[10] = P388S, anticancer drug with modifier VER (verapamil) 5 μg/mL, read-out: ID50 (concentration that inhibits 72-hour cell growth by 50%)

SMILES	effect of serum proteins on chemosensitizing activity (P388R cells [1])	IC50 (P388/ADR cells; [3]) [nM]	IC50 (P388/ADR cells; [4]) [nM]	IC50 (P388/ADR cells; [5]) [nM]	IC50 (P388/ADR cells; [6]) [nM]	IC50 (P388S cells; [7]) [nM]	IC50 (P388S cells; [8]) [nM]	IC50 (P388S cells; [9]) [nM]	IC50 (P388S cells; [10]) [nM]	other results
CCCSc1ccccc1N1CCN(CCCCn2c(=O)[nH]c3ccccc3c2=O)CC1 [Example 1, 3-[4-[4-[2-(propylthio)phenyl]-1-piperazinyl]butyl-2,4-(1H,3H)-quinazolinedione (tioperidone)monohydrochloride]	does not appear to be altered by serum proteins	–	–	–	–	–	–	–	–	potentiating the activity of adriamycin in P388R cells (P388R cells [1]; compared with verapamil, amiodarone and cyclosporin A): superior to all of the other agents; sensitization of P388R cells to vincristine, trimetrexate, and CI-937 (P388R cells [1]; modifier with vincristine, trimetrexate or CI-937): fully sensitized; effect on intracellular drug levels in MDR P388 cells (MDR P388 cells): increasing the intracellular drug levels; effect on adriamycin activity in drug-sensitive parent P388S cells (P388S cells; modifier with adriamycin): little effect; activity at 5 µM (P388R cells [2]; Mus musculus, P388, test compound at 5 μM, read-out: % of Control Cell Growth): 100%; activity at 10 µM (P388R cells [2]; Mus musculus, P388, test compound at 10 μM, read-out: % of Control Cell Growth): 98%; Degree of ADR Potentiation in P388R (P388R cells [2]; test compound at 5 μM with adriamycin): 20.8; Degree of ADR Potentiation in P388R (P388R cells [2]; test compound at 10 μM with adriamycin): 44.7
COc1cc([C@@H]2c3cc4c(cc3[C@@H](O[C@@H]3O[C@@H]5CO[C@@H](C)O[C@H]5[C@H](O)[C@H]3O)[C@H]3COC(=O)[C@H]23)OCO4)cc(OC)c1O [Etoposide]	–	–	–	–	–	–	–	–	–	IC50 (P388/ADR cells; read-out: ID50 (concentration that inhibits 72-hour cell growth by 50%), P388/ADR, anticancer drug alone, modifier none, mean of two experiments in triplicate): 5100 nM; IC50 (P388/ADR cells; read-out: ID50 (concentration that inhibits 72-hour cell growth by 50%), P388/ADR, anticancer drug with modifier CsA (cyclosporin A) 5 μg/mL, mean of two experiments in triplicate): 252 nM; IC50 (P388/ADR cells; read-out: ID50 (concentration that inhibits 72-hour cell growth by 50%), P388/ADR, anticancer drug with modifier TIOP (tioperidone) 5 μg/mL, mean of two experiments in triplicate): 433 nM; IC50 (P388/ADR cells; read-out: ID50 (concentration that inhibits 72-hour cell growth by 50%), P388/ADR, anticancer drug with modifier VER (verapamil) 5 μg/mL, mean of two experiments in triplicate): 872 nM; IC50 (P388S cells; read-out: ID50 (concentration that inhibits 72-hour cell growth by 50%), P388S, anticancer drug alone, modifier none): 24.1 nM; IC50 (P388S cells; read-out: ID50 (concentration that inhibits 72-hour cell growth by 50%), P388S, anticancer drug with modifier CsA (cyclosporin A) 5 μg/mL): 19.8 nM; IC50 (P388S cells; read-out: ID50 (concentration that inhibits 72-hour cell growth by 50%), P388S, anticancer drug with modifier TIOP (tioperidone) 5 μg/mL): 21.2 nM; IC50 (P388S cells; read-out: ID50 (concentration that inhibits 72-hour cell growth by 50%), P388S, anticancer drug with modifier VER (verapamil) 5 μg/mL): 20.1 nM
COc1cccc2c1C(=O)c1c(O)c3c(c(O)c1C2=O)C[C@@](O)(C(=O)CO)C[C@@H]3O[C@H]1C[C@H](N)[C@H](O)[C@H](C)O1 [Adriamycin]	–	7820	195	174	710	156	147	152	152	–
CNCCNc1ccc2c3c(nn2CCNCCO)-c2c(O)ccc(O)c2C(=O)c13 [CI-937, 7,10-dihydroxy-2-[2-[(2-hydroxyethyl)amino]ethyl]-5-[[2-(methylamino)ethyl]amino]anthra[1,9-cd]pyrazol-6(2H)-one dihydrochloride]	–	5730	151	132	524	145	135	145	147	–
CCCCc1oc2ccccc2c1C(=O)c1cc(I)c(OCCN(CC)CC)c(I)c1 [amiodarone, reference compound]	diminished by binding to serum proteins	–	–	–	–	–	–	–	–	–
COc1cccc2c1C(=O)c1c(O)c3c(c(O)c1C2=O)C[C@@](O)(C(C)=O)C[C@@H]3O[C@H]1C[C@H](N)[C@H](O)[C@H](C)O1 [Daunomycin]	–	2770	108	103	329	98	95	96	93	–
